Experimental data taken from publication PMC8316502 (Nature Communications, 2021).
Where two headings read alike, the source gives them in different places.

Columns and labels:
[1] = system: Alliiroseovarius sediminilitoris (DSM 29439); test: Final growth yield on sole N or P source, DSM 29439; format: cell-based
Protocol: (§1) All strains used in this work were axenic. Pseudomonas strains were maintained on Luria Bertani (LB) agar (1.5% w/v) medium at 30 °C. Stappia stellulata and the Roseobacter strains were maintained on Marine Broth agar (1.5% w/v) medium at 30 °C. […] For all growth and proteomics experiments cultures were grown in an adapted minimal A medium[44] using Na-Succinate (20 mM) as the sole carbon source and, where applicable, 10 mM NH4Cl was added as the sole N source. 2AEP and KH2PO4 were added to a final concentration of 100 µM or 1.5 mM as specified in the text and figure legends. Pseudomonas strains were pre-cultured in minimal medium A containing 100 µM Pi and 1.5 mM NH4Cl to ensure adequate growth while minimising the potential for carryover of residual nutrients into experimental cultures. Culture experiments were performed using a FLUOStar Omega 96-well plate reader using Sarstedt 96-well plates incubated at 30°C, shaking at 200 rpm. […] For all other growth and proteomics experiments these marine bacteria were grown in Sea Salts media, with Pi buffer replaced by HEPES buffer. The method used for quantifying extracellular Pi is detailed in the Supplementary Materials.
(§2) Table S1 Final growth yields (mean OD540 ± standard deviation) of Stappia stellulata (DSM 5886), Alliiroseovarius crassostreae (DSM 16950), Alliiroseovarius sediminilitoris (DSM 29439), Thalassobius aestuarii (DSM 15283), and Shimia marina (DSM26895) on 2AEP as sole N or P source with corresponding negative and positive controls. All conditions were performed in triplicate.

Shimia marina (DSM26895) = test: Final growth yield on sole N or P source, DSM 26895; format: cell-based
Protocol: as §1, §2

[2] = system: Stappia stellulata (DSM 5886); test: Final growth yield on sole N or P source, DSM 5886; format: cell-based
Protocol: as §1, §2

[3] = system: Pseudomonas putida BIRD-1; test: Growth of P. putida BIRD-1 on 2AEP; format: cell-based
Protocol: All strains used in this work were axenic. Pseudomonas strains were maintained on Luria Bertani (LB) agar (1.5% w/v) medium at 30 °C. […] For all growth and proteomics experiments cultures were grown in an adapted minimal A medium[44] using Na-Succinate (20 mM) as the sole carbon source and, where applicable, 10 mM NH4Cl was added as the sole N source. 2AEP and KH2PO4 were added to a final concentration of 100 µM or 1.5 mM as specified in the text and figure legends. Pseudomonas strains were pre-cultured in minimal medium A containing 100 µM Pi and 1.5 mM NH4Cl to ensure adequate growth while minimising the potential for carryover of residual nutrients into experimental cultures. Culture experiments were performed using a FLUOStar Omega 96-well plate reader using Sarstedt 96-well plates incubated at 30°C, shaking at 200 rpm.

E. coli PhnD = conditions: read-out: Kd (μM) PhnD Ec, cited from earlier work
[4] = system: Alliiroseovarius crassostreae (DSM 16950); test: Final growth yield on sole N or P source, DSM 16950; format: cell-based
Protocol: as §1, §2

S. stellulata AepX = test: Microscale thermophoresis ligand binding of recombinant S. stellulata AepX; set-up: species or system Stappia stellulata; conditions: for Kd: read-out: Kd (μM) AepX Ss
Protocol: Finally, we determined the substrate specificity of recombinant S. stellulata AepX towards 2AEP and other (alkyl)phosphonates using microscale thermophoresis[53],[54].
Recombinant AepX was over-produced and purified to homogeneity using methods described in[53]. Binding affinity was determined by microscale thermophoresis using a Monolith NT.115 instrument (NanoTemper Technologies GmbT, Germany) following the protocols described in[53],[54]. A detailed protocol is outlined in the Supplementary Materials. […]
pET21a::aepXSs was sequence verified by automated DNA sequencing (Eurofins, Germany) and introduced to E. coli BL21(DE3) for over-production of recombinant AepX with a C-terminal […]
E. coli BL21(DE3) harbouring pET21a::aepXSs was grown in LB broth with 100 µg mL-1 ampicillin in a culture volume of 1 L contained within a 2 L baffled flask. […]
The binding affinity of AepX for phosphonate ligands was determined using Microscale Thermophoresis (MST) with a Monolith NT.115 instrument (NanoTemper Technologies, Germany).
AepX (100 nM) was labelled with 2nd Generation RED-tris-NTA dye (Nanotemper Technologies, Germany) in 20 mM HEPES pH 7.5 with 200 mM NaCl and 0.005% (v/v) Tween-20 (MST buffer) according to the manufacturer’s instructions. […] 4 µL of each protein-ligand mixture was loaded into Monolith NT.115 Premium Capillaries (Nanotemper Technologies, Germany) and thermophoresis was measured at 22 °C for 22 s with 60 % LED power and High MST power. Data from at least two independent titrations were combined and analysed using the MO.Affinity Analysis software version 2.3 (Nanotemper Technologies, Germany), using the early thermophoresis data at 1 – 2.5 seconds in the experiment for analysis. […]
Figure S7. Binding affinities for selected phosphonates by the Stappia stellulata AepX substrate binding protein determined by microscale thermophoresis. […]

[5] = system: Thalassobius aestuarii (DSM 15283); test: Final growth yield on sole N or P source, DSM 15283; format: cell-based
Protocol: as §1, §2

In the case of `NCCP(=O)(O)O` [2-Aminoethylphosphonate, 2-aminoethylphosphonate], the “Final growth yield (mean OD540 ± standard deviation), sole N source” value [1] is reported as 0.239±0.008 OD540, the “Final growth yield (mean OD540 ± standard deviation), sole P source” value [1] is reported as 0.748±0.019 OD540 and the “Final growth yield (mean OD540 ± standard deviation), sole N source” value (Shimia marina (DSM26895)) is reported as 0.347±0.004 OD540. The “Final growth yield (mean OD540 ± standard deviation), sole P source” value (Shimia marina (DSM26895)) was 0.827±0.013 OD540, the “Final growth yield (mean OD540 ± standard deviation), sole N source” value [2] was 0.816±0.080 OD540 and the “Final growth yield (mean OD540 ± standard deviation), sole P source” value [2] was 0.980±0.005 OD540. For the same molecule, the “Growth on 2AEP as sole P, sole N or sole N and sole P source” value [3] was “capable of growth”, the Kd (E. coli PhnD) was 0.05 to 0.1 µM and the “Final growth yield (mean OD540 ± standard deviation), sole N source” value [4] was 0.535±0.039 OD540. For the same molecule, the “Final growth yield (mean OD540 ± standard deviation), sole P source” value [4] was 1.050±0.018 OD540, the “Kd of AepX in words” value (S. stellulata AepX) was “nanomolar range” and the Kd (S. stellulata AepX) was 0.023 ± 0.004 µM. The “Final growth yield (mean OD540 ± standard deviation), sole N source” value [5] was 0.487±0.020 OD540 and the “Final growth yield (mean OD540 ± standard deviation), sole P source” value [5] was 0.869±0.094 OD540.

In the case of `NCP(=O)(O)O` [Aminomethylphosphonate], the Kd (E. coli PhnD; E. coli PhnD, previous studies) is listed as 16.6 µM and the Kd (S. stellulata AepX; microscale thermophoresis, recombinant S. stellulata AepX, 22 °C) is listed as 4490 ± 808 µM.

In the case of ammonium [NH4], the “Final growth yield (mean OD540 ± standard deviation), sole N source” value [1] is reported as 0.257±0.004 OD540, the “Final growth yield (mean OD540 ± standard deviation), sole N source” value (Shimia marina (DSM26895)) is reported as 0.397±0.035 OD540 and the “Final growth yield (mean OD540 ± standard deviation), sole N source” value [2] is reported as 0.680±0.016 OD540. The “Final growth yield (mean OD540 ± standard deviation), sole N source” value [4] was 0.776±0.044 OD540.

In the case of orthophosphate [Pi], the “Final growth yield (mean OD540 ± standard deviation), sole P source” value [1] is reported as 1.100±0.037 OD540, the “Final growth yield (mean OD540 ± standard deviation), sole P source” value (Shimia marina (DSM26895)) is reported as 1.045±0.020 OD540 and the “Final growth yield (mean OD540 ± standard deviation), sole P source” value [2] is reported as 1.01±0.07 OD540. For the same molecule, the “Final growth yield (mean OD540 ± standard deviation), sole P source” value [4] was 0.90±0.018 OD540 and the “Final growth yield (mean OD540 ± standard deviation), sole P source” value [5] was 1.003±0.030 OD540.
